Data from US20060167270A1, “5-substituted 2h-pyrazone-3-carbixylic acid derivatives as antilipolytic agents for the treatment of metabolic-related disorders such as dyslipidemia” (Arena Pharmaceuticals Inc., priority 2002, published 2006).

Biological target: T1, hRUP25 (Homo sapiens, UniProt Q8TDS4)
T1 construct: expressed in transfected cells; host or cells: CHO cells, stably transfected
Experiment: cAMP Whole Cell assay (Flash Plate Adenylyl Cyclase kit) in CHO cells stably transfected with hRUP25
Format: cell-based
Conditions: CHO cells stably expressing hRUP25; average of two (2) trials
Source text: A modified Flash Plate™ Adenylyl Cyclase kit (New England Nuclear, Cat. No. SMP004A) was utilized for direct identification of candidate compounds as agonists to hRUP25 (Seq. Id. Nos. 1 & 2) in accordance with the following protocol:
CHO cells stably transfected with an expression vector encoding hRUP25 and cultured under condition permissive for cell surface expression of the encoded hRUP25 receptor were harvested from flasks via non-enzymatic means. The cells were washed in PBS and resuspended in the manufacturer's Assay Buffer. Live cells were counted using a hemacytometer and Trypan blue exclusion, and the cell concentration was adjusted to 2×10^6 cells/ml. cAMP standards and Detection Buffer (comprising 2 μCi of tracer [^125I]-cAMP (100 μl) to 11 ml Detection Buffer) were prepared and maintained in accordance with the manufacturer's instructions. Candidate compounds identified as per above (if frozen, thawed at room temperature) were added to their respective wells (preferably wells of a 96-well plate) at increasing concentrations (3 μl/well; 12 μM final assay concentration). […] Plates were counted in a Wallac MicroBeta™ plate reader using “Prot. #31” (as per manufacturer instructions).
The biological in vitro activity was determined using the cAMP Whole Cell method, one representative example is shown in the table below: […]

T1 sequence (Q8TDS4 whole entry): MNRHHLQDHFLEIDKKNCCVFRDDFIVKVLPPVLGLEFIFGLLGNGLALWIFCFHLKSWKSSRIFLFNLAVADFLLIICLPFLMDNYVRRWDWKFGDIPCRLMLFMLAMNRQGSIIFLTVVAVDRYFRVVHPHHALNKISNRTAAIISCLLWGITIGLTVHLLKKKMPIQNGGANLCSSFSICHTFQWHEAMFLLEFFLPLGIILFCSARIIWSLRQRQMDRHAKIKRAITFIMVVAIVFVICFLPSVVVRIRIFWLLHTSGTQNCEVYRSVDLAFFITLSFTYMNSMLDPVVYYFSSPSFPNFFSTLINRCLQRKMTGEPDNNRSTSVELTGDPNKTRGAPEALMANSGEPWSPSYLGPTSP

IC50: 900 nM
Structure (SMILES): CCCCc1[nH]nc(C(=O)O)c1F [Compound 8, 5-Butyl-4-fluoro-1H-pyrazole-3-carboxylic acid]
